In publication PMC12635975, “Peptide-Based Fluorescent Biosensing System for the Detection of the Melanoma Biomarker S100B” (Bioconjugate Chemistry, 2025):
Each block holds one molecule with its values, some of them ahead of it.

Tests used:
[1] = test system: other S100 proteins; conditions: unlike other peptides; ref literature (citation numbers not shown in text); cited from earlier work
Description: (§1) It interacts with S100B through a combination of hydrophobic and electrostatic interactions, stabilizing the protein structure and enhancing calcium-ion-binding affinity. […] By integrating TRTK12 into advanced optical biosensing systems, ...

[2] = biological target: T1, S100B (Homo sapiens, UniProt P04271); conditions: ref literature (citation numbers not shown in text); read-out: binding affinity K d; cited from earlier work
T1 construct: purchased Abbexa abx060130
T1 sequence (P04271 1-92): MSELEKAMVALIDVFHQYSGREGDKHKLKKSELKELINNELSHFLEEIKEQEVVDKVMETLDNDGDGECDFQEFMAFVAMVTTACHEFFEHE
Description: as §1

[3] = biological target: fluorescently labeled peptide-nucleic acid (PNA) beacon with the peptide TRTK12 as the biorecognition element; test: other fluorescence titration; beacon fixed at 500 nM, S100B 0-100 nM; donor (5-FAM) emission of the FAM/Dabcyl FRET beacon, excitation 499 nm; 50 mM Tris-HCl pH 7.0, 240 mM NaCl, 20 mM CaCl2; 35 °C; 60 min incubation; two-site binding model fitted to the calibration curve

Molecule: TRTKIDWNKILS [TRTK12]
cross-reactivity [1]: minimal cross-reactivity with other S100 proteins
Kd [2]: ~260 nM

half-saturation constant of the high-affinity site (two-site binding model) [3]: 0.145 nM
half-saturation constant of the lower-affinity site (two-site binding model) [3]: 364 nM
B1: S100B protein (natural protein)
chain: T1 sequence (P04271 1-92)
